These results are taken from publication PMC5357622, “Chelation Motifs Affecting Metal-dependent Viral Enzymes: N′-acylhydrazone Ligands as Dual Target Inhibitors of HIV-1 Integrase and Reverse Transcriptase Ribonuclease H Domain” (Frontiers in Microbiology, 2017).

The target of series [1] is T1, HIV-1 RT-associated RNase H (Human immunodeficiency virus type 1 group M subtype B, UniProt P03366).
T1 construct: Human immunodeficiency virus type 1 heterodimeric RT was expressed and purified; made in house
As to the kind of experiment: HIV-1 RT-associated RNase H assay (fluorescent RNA/DNA hybrid). Type of series: biochemical. As to the method: Human immunodeficiency virus type 1 heterodimeric RT was expressed and purified as previously described ([Esposito et al., 2011]; [Meleddu et al., 2014]). The HIV-1 RT-associated RNase H activity was measured as described ([Corona et al., 2014a]; [Meleddu et al., 2015]). Briefly, 20 ng of HIV-1 RT was incubated in 100 μL reaction volume containing 50 mM Tris-HCl (pH 7.8), 6 mM MgCl2, 1 mM DTT, 80 mM KCl, hybrid RNA/DNA (5′-[…]-3′-Fluorescein, 5′-[…]-3′-Dabcyl) and 2 nM RT. The reaction mixture was incubated for 1 h at 37°C; the reaction was stopped by addition of EDTA and products were measured with a Victor 3 (Perkin Elmer model 1420-051) equipped with filters for 490/528 nm (excitation/emission wavelength).

Series [2] addresses HIV-1 IN in presence of LEDGF/p75 (Human immunodeficiency virus type 1 group M subtype B, UniProt P03366). As to the kind of experiment: HIV-1 IN/LEDGF HTRF LEDGF-dependent integration assay. (In general: In TR-FRET formats the signal depends on donor and acceptor labels being close together.)
Description: The IN-LEDGF/p75 dependent assay allows to measure the inhibition of 3′ processing and strand transfer IN reactions in presence of recombinant LEDGF/p75 protein, as previously described ([Tintori et al., 2015]). Briefly, 50 nM IN was pre-incubated with increasing concentration of compounds for 1 h at room temperature in reaction buffer containing 20 mM HEPES pH 7.5, 1 mM DTT, 1% glycerol, 20 mM MgCl2, 0.05% Brij-35 and 0.1 mg/ml BSA. DNA donor substrate, DNA acceptor substrate and 50 nM LEDGF/p75 protein were added and incubated at 37°C for 90 min. After the incubation, 4 nM of Europium-Streptavidin were added to the reaction mixture and the HTRF signal was recorded using a Perkin Elmer Victor 3 plate reader using a 314 nm for excitation wavelength and 668 and 620 nm for the wavelength of the acceptor and the donor substrates emission, respectively.
A further series relates to HIV-1 (strain IIIB). The series is described as follows: Cell-based HIV assay in MT-4 cells (MTT, virus-induced cytopathic effect). To be noted: Human immunodeficiency virus 1, IIIB. As to the method: (§1) The procedure to determine anti-HIV activity and cytotoxicity of the compounds in human lymphocyte MT-4 cells was published elsewhere ([Pannecouque et al., 2008]). Briefly, serial dilutions of the compounds were added to 96-well plates containing the MT-4 cells. To the virus-infected wells, 100–300 CCID50 (50% cell culture infectious dose-50%) of HIV-1 (strain IIIB) or HIV-2 (strain ROD) was added. The mock-infected wells received the compounds without the virus. After 5 days incubation, the spectrophotometric MTT assay was performed to determine the effect of the compounds on the viability of the mock- and HIV-infected cells.

A short description of another series: in vitro. Type of series: cell-based. To be noted: human. On the procedure:
as §1

Several values for one entry are separate records, joined by “and”; a condition that tells them apart may be missing. Identical values can stand only once.

Sequence of HIV-1 IN in presence of LEDGF/p75 (O75475 whole entry, other chains not shown): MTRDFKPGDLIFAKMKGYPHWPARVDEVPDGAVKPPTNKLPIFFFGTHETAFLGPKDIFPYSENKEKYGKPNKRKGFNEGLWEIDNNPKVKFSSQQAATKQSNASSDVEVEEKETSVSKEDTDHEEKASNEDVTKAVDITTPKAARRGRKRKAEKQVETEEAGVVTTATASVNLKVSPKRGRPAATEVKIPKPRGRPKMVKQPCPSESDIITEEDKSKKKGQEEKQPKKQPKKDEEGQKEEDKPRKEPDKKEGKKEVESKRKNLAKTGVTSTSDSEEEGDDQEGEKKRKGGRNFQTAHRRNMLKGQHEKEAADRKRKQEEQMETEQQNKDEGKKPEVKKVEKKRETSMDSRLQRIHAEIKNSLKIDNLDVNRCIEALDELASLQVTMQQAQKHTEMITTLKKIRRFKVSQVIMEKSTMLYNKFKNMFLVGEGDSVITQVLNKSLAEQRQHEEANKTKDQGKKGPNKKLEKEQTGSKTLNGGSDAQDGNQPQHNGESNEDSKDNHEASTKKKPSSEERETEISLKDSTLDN

For the compound `O=C(N/N=C/c1cccc(O)c1O)c1ccccc1O` [Compound 5], in series [1], the “HIV-1 RNase H IC50” value is on record as “No inhibition” and the IC50 (as a rule, the concentration needed to halve the response being measured) is over 100 µM.

Take `COc1cccc(/C=N/NC(=O)c2ccccc2O)c1O` [Compound 6]: the concentration for half-maximal inhibition (IC50) in series [1] is 37 ± 5 µM; in series [2], over 100 µM.

With `O=C(N/N=C/c1ccc(O)c(O)c1O)c1ccccc1O` [Compound 7], the concentration for half-maximal inhibition (IC50) in series [1] is 25 µM and 25.3 µM; in series [2] it was 7.1 ± 0.2 µM.

Consider `O=C(N/N=C/c1cccc(O)c1O)c1cc(O)c(O)c(O)c1` [Compound 14], for which the IC50 in series [1] is 3.1 ± 0.5 µM; in series [2] it was over 100 µM.

Regarding `O=C(N/N=C/c1cc(O)c(O)c(O)c1)c1cc(O)c(O)c(O)c1` [Compound 23], the IC50 in series [1] was 0.18 ± 0.03 µM; in series [2], 0.165 ± 0.025 µM.

Turning to `O=C(N/N=C/c1cc(O)c(O)cc1O)c1ccccc1O` [Compound 8], the concentration for half-maximal inhibition (IC50) was determined as 8.8 ± 3.1 µM in series [1] and 30 ± 1 µM in series [2].

Regarding `CCCCCCCC(=O)N/N=C/c1cccc(O)c1O` [Compound 1, N′-2,3-dihydroxy benzylidene heptyl hydrazone], the IC50 in series [1] was ~60 µM and 61 µM; in series [2], over 100 µM.

Take `COc1ccc(O)c(/C=N/NC(=O)c2cc(O)c(O)c(O)c2)c1` [Compound 17]: the half-inhibitory concentration (IC50) is 2 ± 0.5 µM in series [1] and over 100 µM in series [2].

Consider `CCOC(=O)C(=O)CC(=O)/C=C/c1cccn1Cc1ccc(F)cc1` [RDS1643, reference compound], for which the IC50 in series [1] was determined as 7.5 ± 0.9 µM.

For the compound `O=C(N/N=C/c1cccc(O)c1O)c1ccccc1` [Compound 3], in series [1], the “HIV-1 RNase H IC50” value is reported as “completely abolished” and the IC50 was over 100 µM. Further, the half-maximal inhibitory concentration (IC50) in series [2] is over 100 µM.

Turning to `COc1cccc(/C=N/NC(=O)c2cc(O)c(O)c(O)c2)c1O` [Compound 15], the IC50 in series [1] was 0.92 ± 0.02 µM; in series [2] it was over 100 µM.

With `O=C(N/N=C/c1c(O)cc(O)cc1O)c1cc(O)c(O)c(O)c1` [Compound 22], the half-maximal inhibitory concentration (IC50) is 9.7 ± 1.6 µM in series [1] and 1.8 ± 0.1 µM in series [2].

As to `O=C(N/N=C/c1ccccc1O)c1cc(O)c(O)c(O)c1` [Compound 13], the IC50 in series [1] is 2.3 ± 0.7 µM; in series [2], over 100 µM.

In the case of `O=C(N/N=C/c1cc(O)ccc1O)c1cc(O)c(O)c(O)c1` [Compound 16], the results for the IC50 in series [1] and in series [2] were 2.1 ± 0.1 µM and 69 ± 5 µM, respectively.

For the compound `COc1cc(C(=O)N/N=C/c2cc(O)ccc2O)cc(OC)c1OC` [Compound 19], the concentration for half-maximal inhibition (IC50) in series [1] and in series [2] was over 100 µM each time.

For the compound `O=C(N/N=C/c1ccc(O)c(O)c1O)c1cc(O)c(O)c(O)c1` [Compound 20], the IC50 is 0.175 µM and 0.17 µM in series [1]; 0.085 ± 0.025 µM in series [2].

Take `O=C(N/N=C/c1ccccn1)c1cc(O)c(O)c(O)c1` [Compound 12]: the 50% inhibitory concentration (IC50) in series [1] is 3.2 ± 0.5 µM; in series [2], over 100 µM.

Turning to `O=C(N/N=C/c1c(O)cc(O)cc1O)c1ccccc1O` [Compound 9], the concentration for half-maximal inhibition (IC50) was 9.6 ± 3.4 µM in series [1] and 9.4 ± 0.4 µM in series [2].

As for `CCCCCCCC(=O)N/N=C/c1cccc(OC)c1O` [Compound 2], the IC50 in series [1] was ~60 µM and 62 µM.

For `O=C(N/N=C/c1cc(O)c(O)cc1O)c1cc(O)c(O)c(O)c1` [Compound 21], the half-maximal inhibitory concentration (IC50) in series [1] turned out to be 0.62 ± 0.1 µM; in series [2] it was 0.08 ± 0.01 µM.

`O=C(N/N=C/c1ccccc1)c1cc(O)c(O)c(O)c1` [Compound 11]: the IC50 is 2.6 ± 0.6 µM in series [1] and over 100 µM in series [2].

On to `O=C(N/N=C/c1ccc(O)cc1O)c1cc(O)c(O)c(O)c1` [Compound 18], for which the IC50 in series [1] is 1.7 ± 0.1 µM; in series [2] it was 16 ± 3 µM. Further, in series [1] (RNase H versus IN), the “RNase H inhibition potency relative to IN activity” value is given as “ninefold more potently”. Also, the concentration giving a half-maximal response (EC50) (commonly the concentration giving half of the maximal effect) with HIV-1 (strain IIIB) (MT4, 120 h, read-out: EC50 for HIV-1 (50% protection from virus-induced cytopathic effect), 5 days, mean ± SD of two independent tests) is 17 ± 4 µM. Moreover, the inhibition (as a rule, the change of the read-out against control, counted positive when it falls) at 25 µM with HIV-1 (strain IIIB) (MT4, at a concentration of 25 μM) is 55 to 82%. For the same compound, half-maximal cytotoxicity in “in vitro” (CC50 at 5 days) was put at 61 µM.

On to `O=C(N/N=C/c1cc(O)c(O)c(O)c1)c1ccccc1O` [Compound 10], for which the half-maximal inhibitory concentration (IC50) in series [1] is 4.1 ± 0.2 µM; in series [2] it was over 100 µM.

For `COc1cccc(/C=N/NC(=O)c2ccccc2)c1O` [Compound 4], in series [1], the “HIV-1 RNase H IC50” value is on record as “completely abolished” and the IC50 is over 100 µM.
